US8389564B2, “Proteasome inhibitors” (priority 2008, dated 2013)
Read-outs that look alike come from different tables or passages of the source.

Tests used:
[1] = target: T1, caspase-like activity of the 20S proteasome (Oryctolagus cuniculus, UniProt A0A5F9DQW2); experiment: In vitro purified rabbit muscle 20S proteasome assay, caspase-like (C-L) activity, Z-LLEAMC substrate; type: biochemical
T1 construct: In Vitro Purified Rabbit Muscle 20S Proteasome Activity Assays; from tissue; host or cells: rabbit muscle
T1 sequence (A0A5F9DQW2 1-212): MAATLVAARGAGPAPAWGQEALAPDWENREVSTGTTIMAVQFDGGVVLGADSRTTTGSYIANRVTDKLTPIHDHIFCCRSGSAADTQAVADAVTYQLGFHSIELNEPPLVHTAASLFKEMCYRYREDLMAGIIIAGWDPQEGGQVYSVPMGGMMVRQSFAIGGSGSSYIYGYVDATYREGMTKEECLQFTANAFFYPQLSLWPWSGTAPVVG
Protocol: (§1) Serial diluted test compounds were added in duplicate to 1 μg/ml purified rabbit 20S proteasome in assay buffer containing 20 mM HEPES, pH7.3, 0.5 mM EDTA, 0.05% Triton X-100 and 0.035% SDS and pre-incubated for 5 min at 37° C. Reactions were initiated by the addition of the Suc-LLVY-AMC peptide substrate at a final concentration of 20 μM. Fluorescence of the cleaved peptide substrate was measured at λex=390 nm and λem=460 nm using a Fluoroskan Ascent 96-well microplate reader (Thermo Electron, Waltham, Mass.). […] The caspase-like activity of the 20S proteasome was determined as described above except that Z-LLEAMC was used as the peptide substrate. For the evaluation of the trypsin-like activity, the SDS was omitted from the assay buffer and Boc-LRR-AMC was used as the peptide substrate.

[2] = target: T2, trypsin-like activity of the 20S proteasome (Oryctolagus cuniculus, UniProt G1SWK8); experiment: In vitro purified rabbit muscle 20S proteasome assay, trypsin-like (T-L) activity, Boc-LRR-AMC substrate; type: biochemical
T2 construct: In Vitro Purified Rabbit Muscle 20S Proteasome Activity Assays; from tissue; host or cells: rabbit muscle
T2 sequence (G1SWK8 1-271): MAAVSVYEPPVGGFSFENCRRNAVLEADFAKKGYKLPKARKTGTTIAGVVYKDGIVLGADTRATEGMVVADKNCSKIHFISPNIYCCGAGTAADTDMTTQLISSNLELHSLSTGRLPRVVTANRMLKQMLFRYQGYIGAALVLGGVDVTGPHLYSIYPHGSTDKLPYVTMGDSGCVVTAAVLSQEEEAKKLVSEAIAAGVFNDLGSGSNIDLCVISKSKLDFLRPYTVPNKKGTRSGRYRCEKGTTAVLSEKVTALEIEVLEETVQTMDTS
Protocol: as §1

RPMI 8226 = experiment: Cytotoxicity in RPMI 8226; conditions: Homo sapiens, RPMI-8226, read-out: Cytotoxicity in RPMI 8226 Average IC50 ± SD (nM)
Protocol: B16-F10 (ATCC; CRL-6475), DU 145 (ATCC; HTB-81), HEK293 (ATCC; CRL-1573), HT-29 (ATCC; HTB-38), LoVo (ATCC; CCL-229), MDA-MB-231 (ATCC; HTB-26), MIA PaCa-2 (ATCC; CRL-1420), NCI-H292 (ATCC; CRL-1848), OVCAR-3 (ATCC, HTB-161), PANC-1 (ATCC; CRL-1469), PC-3 (ATCC; CRL-1435), RPMI 8226 (ATCC; CCL-155) and U266 (ATCC; TIB-196) are maintained in appropriate culture media. The cells are cultured in an incubator at 37° C. in 5% CO2 and 95% humidified air.
20 mM stock solutions of the test compound are prepared in 100% DMSO, aliquoted and stored at −80° C. […] The plates are returned to the incubator for 48 hours. The final concentration of DMSO is 0.25% in all samples.
Following 48 hours of drug exposure, 10 μl of 0.2 mg/ml resazurin (obtained from Sigma-Aldrich Chemical Co.) in Mg^2+, Ca^2+ free phosphate buffered saline are added to each well and the plates are returned to the incubator for 3-6 hours. Since living cells metabolize Resazurin, the fluorescence of the reduction product of Resazurin is measured using a Fusion microplate fluorometer (Packard Bioscience) with λex=535 nm and λem=590 nm filters. Resazurin dye in medium without cells is used to determine the background, which was subtracted from the data for all experimental wells.

[3] = target: T3, chymotrypsin-like activity of the 20S proteasome (Oryctolagus cuniculus, UniProt G1T4Q9); experiment: In vitro purified rabbit muscle 20S proteasome assay, chymotrypsin-like (CT-L) activity, Suc-LLVY-AMC substrate; type: biochemical
T3 construct: In Vitro Purified Rabbit Muscle 20S Proteasome Activity Assays; from tissue; host or cells: rabbit muscle
T3 sequence (G1T4Q9 1-263): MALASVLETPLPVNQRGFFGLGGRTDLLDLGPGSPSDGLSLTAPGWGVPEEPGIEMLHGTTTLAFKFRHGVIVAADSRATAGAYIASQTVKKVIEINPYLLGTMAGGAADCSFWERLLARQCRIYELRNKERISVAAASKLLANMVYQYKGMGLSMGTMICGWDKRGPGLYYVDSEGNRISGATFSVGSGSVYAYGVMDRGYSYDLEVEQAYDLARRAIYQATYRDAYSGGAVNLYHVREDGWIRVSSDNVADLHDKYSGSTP
Protocol: as §1

[4] = rabbit 20S proteasome, mean ± SD of 3 or more experiments, read-out: C-L IC50
[5] = rabbit 20S proteasome, mean ± SD of 3 or more experiments, read-out: T-L IC50
[6] = rabbit 20S proteasome, mean ± SD of 3 or more experiments, read-out: CT-L IC50

| Compound | IC50 [1] [nM] | IC50 [2] [nM] | IC50 (RPMI 8226) [nM] | IC50 [3] [nM] | IC50 [1, 4] [nM] | IC50 [2, 5] [nM] | IC50 [3, 6] [nM] |
| --- | --- | --- | --- | --- | --- | --- | --- |
| CN(C)c1cccc2c(S(=O)(=O)OCC[C@H]3C(=O)N[C@@]4([C@@H](O)[C@@H]5C=CCCC5)C(=O)O[C@@]34C)cccc12 [CH2CH2ODs] | 90 ± 11 | 12 ± 2.3 | 30 ± 6 | 3 ± 0.5 | – | – | – |
| C[C@@]12OC(=O)[C@]1([C@@H](O)[C@@H]1C=CCCC1)NC(=O)[C@@H]2CCF [CH2CH2F] | – | – | 875 ± 430 | – | 781 ± 47 | 525 ± 15 | 10 ± 0.7 |
| Cc1ccc(S(=O)(=O)OCC[C@H]2C(=O)N[C@@]3([C@@H](O)[C@@H]4C=CCCC4)C(=O)O[C@@]23C)cc1 [CH2CH2OTs] | 127 ± 5 | 9.9 ± 0.2 | 27 ± 8.5 | 2.5 ± 0.4 | – | – | – |
| C[C@@]12OC(=O)[C@]1([C@@H](O)[C@@H]1C=CCCC1)NC(=O)[C@@H]2CCOS(=O)(=O)c1ccc(Oc2ccccc2)cc1 | 85 ± 9 | 14 ± 1 | 78 ± 25 | 3.2 ± 0.2 | – | – | – |
| CC(=O)OCC[C@H]1C(=O)N[C@@]2([C@@H](O)[C@@H]3C=CCCC3)C(=O)O[C@@]12C [CH2CH2OC(O)CH3] | 971 ± 56 | 745 ± 40 | 20000 | 9.1 ± 0.3 | – | – | – |
| C[C@@]12OC(=O)[C@]1([C@@H](O)[C@@H]1C=CCCC1)NC(=O)[C@@H]2CCI [CH2CH2I] | – | – | 6.9 ± 0.9 | – | 410 ± 230 | 13 ± 3 | 2.8 ± 0.5 |
| C[C@@]12OC(=O)[C@]1([C@@H](O)[C@@H]1C=CCCC1)NC(=O)[C@@H]2CCOS(C)(=O)=O [CH2CH2OMs] | 873 ± 32 | 65 ± 8 | 144 ± 46 | 4.3 ± 0.8 | – | – | – |
| C[C@@]12OC(=O)[C@]1([C@@H](O)[C@@H]1C=CCCC1)NC(=O)[C@@H]2CCBr [CH2CH2Br] | – | – | 7.8 ± 1.4 | – | 290 ± 60 | 14 ± 2 | 2.6 ± 0.4 |
| C[C@@]12OC(=O)[C@]1([C@@H](O)[C@@H]1C=CCCC1)NC(=O)[C@@H]2CCO [CH2CH2OH] | – | – | 38000 | – | 1200 ± 57 | 1200 ± 150 | 14 ± 1.5 |
| CC[C@H]1C(=O)N[C@@]2([C@@H](O)[C@@H]3C=CCCC3)C(=O)O[C@@]12C [CH2CH3] | – | – | 6300 | – | – | 610 ± 35 | – |
| C[C@@]12OC(=O)[C@]1([C@@H](O)[C@@H]1C=CCCC1)NC(=O)[C@@H]2CCOS(=O)(=O)c1ccc(-c2ccccc2)cc1 | 101 ± 11 | 15 ± 1 | 43 ± 12 | 3.8 ± 0.1 | – | – | – |
| CC(C)(C)c1ccc(S(=O)(=O)OCC[C@H]2C(=O)N[C@@]3([C@@H](O)[C@@H]4C=CCCC4)C(=O)O[C@@]23C)cc1 | 180 ± 4 | 31 ± 1 | 94 ± 18 | 3.2 ± 0.4 | – | – | – |
| C[C@@]12OC(=O)[C@]1([C@@H](O)[C@@H]1C=CCCC1)NC(=O)[C@@H]2CCCl [CH2CH2Cl, Salinosporamide A, reference compound] | – | – | 9.8 ± 3 | – | – | – | – |
| CCC[C@H]1C(=O)N[C@@]2([C@@H](O)[C@@H]3C=CCCC3)C(=O)O[C@@]12C [CH2CH2CH3] | – | – | 6300 | – | 1200 ± 200 | 1100 ± 200 | 24 ± 5 |
| C[C@H]1C(=O)N[C@@]2([C@@H](O)[C@@H]3C=CCCC3)C(=O)O[C@@]12C [CH3] | – | – | 6300 | – | 460 ± 49 | 370 ± 44 | 7.5 ± 0.6 |
| C[C@@]12OC(=O)[C@]1([C@@H](O)[C@@H]1C=CCCC1)NC(=O)[C@@H]2CCOC(=O)c1ccc(-c2ccccc2)cc1 | 160 ± 9 | 52 ± 5 | 290 ± 108 | 9 ± 2 | – | – | – |
